Data on ten compounds can be found in patent US20250120987A1, “METHOD FOR TREATING CANCER USING HUMAN MIT[…] ENZYME 2 INHIBITOR” (priority 2023, published 2025).

For one assay, the target named is T1, human ME2 (Homo sapiens, UniProt P23368).
T1 construct: made in house; host or cells: Escherichia coli BL21
Nature of the assay: ME2 inhibition test. The conditions noted are these: for IC50: Table 1, 40 mM L-malate, 2 mM NAD+, 10 mM MgCl2, read-out: IC50 with respect to ME2; for inhibiting the activity of ME2 (in words): summary of Table 1. The class given is biochemical.

The test system of assay [1] is MCF-7 cells. Nature of the assay: Seahorse XF cell mito stress test (oxygen consumption rate). The class given is cell-based, human.
Procedure: (§5) Finally, a Seahorse XFe24 analyzer was used to perform a Seahorse XF cell mito stress test on the cells to obtain the oxygen consumption rates (OCR) of the cells, and the test results are shown in FIG. 9 to FIG. 18. The control groups were formed by cells to which no EA or MDSA was added.
The test system of assay [2] is MCF-7 cells. Nature of the assay: Pyruvate and NADPH content of treated cells. The class given is cell-based, human. The conditions noted are these: 25 μM, 48 hours. The procedure: (§1) H1299 cells (3×10^5 cells) were cultured for 24 hours in separate culture media each containing 20 mM L-malate, with the culture environment being at 37° C. and containing 5% carbon dioxide. […]. After that, the cultured cells in each group were collected and were centrifuged in 100 μL of phosphate buffer, and the supernatants were collected. Once the proteins in the supernatants were removed, a pyruvate colorimetric/fluorometric assay kit and a PicoProbe™ NADPH quantification fluorometric assay kit were used to analyze the pyruvate content and NADPH content of the cells respectively (Ex/Em: at 535 nm and 587 nm). […]
In addition, MCF-7 cells (6×10^5 cells) were cultured in the same way as the H1299 cells and had their pyruvate content and NADPH content analyzed.

Assay [3] relates to H1299 cells. Nature of the assay: ATP and ROS content of treated cells. The class given is cell-based, human. The note with it: 150 μM, 48 hours. How it is done:
H1299 cells (3×10^5 cells) were cultured in separate culture media each containing 20 mM L-malate. […]. Also, a ROS assay kit (#cat.MAK143, Sigma-Aldrich, St. Louis, MO, USA) was used to analyze the ROS contents of the cells, and the results are shown in FIG. 8. […]

Assay [4] deals with MCF-7 cells. The note with it: 150 μM, 48 hours.
Procedure: (§6) A 24-well plate was inoculated with H1299 cells (1.5×10^5 cells) and MCF-7 cells (3.0×10^5 cells), and the cells were cultured in a 37° C. and 5% carbon dioxide environment for 24 hours in order for a confluent monolayer of cells to be formed. After that, the culture medium was removed, and the cells were washed with a phosphate buffer. […] Cell migration was observed under an automated microscope, and a quantitative analysis of cells was performed at the same time.
Assay [5] concerns H1299 cells. The note with it: 150 μM, 48 hours.
Procedure: as §6
Assay [6] deals with MCF-7 cells. Nature of the assay: Cell invasion assay (Transwell/Matrigel). The class given is cell-based, human. The note with it: 150 μM, 24 hours. The procedure:
(§2) […]. A culture medium containing 10% fetal bovine serum was subsequently added to the lower chambers. […] The vehicle groups, which were formed by cells to which no EA or MDSA was added, were provided to enable the calculation of the amount of the cells in each EA or MDSA-treated group in relation to the amount of the cells in the corresponding vehicle group at the end of the assay so that changes in the relative amounts of cells can be observed with ease.

The test system of assay [7] is H1299 cells. Nature of the assay: Cell invasion assay (Transwell/Matrigel). The class given is cell-based, human. The conditions noted are these: 150 μM, 24 hours. The procedure:
as §2

Assay [8] relates to H1299 cells. Nature of the assay: Seahorse XF cell mito stress test (oxygen consumption rate). Type of assay: cell-based, human. The note with it: 75 and 150 μM, 3 hours.
Procedure: as §5
The next assay has as its system MV4-11 cells. Nature of the assay: Animal test, ASID mice transplanted with MV4-11 cells. The note with it: 4 mg/kg, intravenous, day 21. The class given is in vivo. How it is done: (§3) A plurality of 8-week-old ASID mice (or mice with advanced severe immunodeficiency, or more specifically NOD.Cg-Prkde^scidIl2rg^tm1Wjl/YckNarl mice) were randomly divided into 6 groups. Each group of mice was intravenously injected with one of a plurality of differently treated AML cell variants at a frequency of 5 days per week for 4 weeks. The AML cell variants injected into the 6 groups of mice are as follows: • Group 1-1: THP-1 cells • Group 2-1: THP-1 cells with EA (at a dosage of 4 mg/kg) • Group 3-1: THP-1 cells with Na2EA (at a dosage of 4 mg/kg) • Group 1-2: MV4-11 cells • Group 2-2: MV4-11 cells with EA (at a dosage of 4 mg/kg) • Group 3-2: MV4-11 cells with Na2EA (at a dosage of 4 mg/kg)
(§4) On the 21st day of the test, peripheral blood was collected from the submandibular vein of the mice, and bone marrow was collected as well. The blood and bone marrow were stained with specific markers (CD33 and CD45) and then reacted with a fluorescent antibody, before the CD33+ or CD45^+-stained cells were quantified with a flow cytometer.

Assay [9] has as its system H1299 cells. Nature of the assay: Pyruvate and NADPH content of treated cells. The conditions noted are these: 25 μM, 48 hours, 20 mM L-malate. The class given is cell-based, human. The procedure: as §1
A further assay relates to THP-1 cells. Nature of the assay: Animal test, ASID mice transplanted with THP-1 cells. The class given is in vivo. The note with it: 4 mg/kg, intravenous, day 21. The procedure:
as §3, §4

T1 sequence (P23368 19-584): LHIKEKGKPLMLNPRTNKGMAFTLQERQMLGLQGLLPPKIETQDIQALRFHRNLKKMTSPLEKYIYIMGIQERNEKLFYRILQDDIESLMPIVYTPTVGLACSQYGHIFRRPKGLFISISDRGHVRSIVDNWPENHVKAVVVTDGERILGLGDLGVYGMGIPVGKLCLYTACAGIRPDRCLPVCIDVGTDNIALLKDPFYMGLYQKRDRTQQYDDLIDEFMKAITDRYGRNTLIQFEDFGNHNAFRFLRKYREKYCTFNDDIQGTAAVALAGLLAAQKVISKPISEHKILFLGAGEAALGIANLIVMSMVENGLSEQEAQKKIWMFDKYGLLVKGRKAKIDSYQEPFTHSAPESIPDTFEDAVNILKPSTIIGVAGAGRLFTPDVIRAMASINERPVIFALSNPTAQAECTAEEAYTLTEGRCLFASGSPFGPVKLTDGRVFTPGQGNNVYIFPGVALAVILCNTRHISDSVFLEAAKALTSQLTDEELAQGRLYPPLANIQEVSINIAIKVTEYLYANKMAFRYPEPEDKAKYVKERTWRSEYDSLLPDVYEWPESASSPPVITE

As to `O=C(O)c1ccc2ccccc2c1O` [1-hydroxy-2-naphthoic acid], on human ME2, the IC50 (as a rule, the midpoint of a concentration-inhibition curve) was 74.7 µM and the “inhibiting the activity of ME2 (in words)” value (from here on “inhibiting the activity”) was “relatively effective”.
As for `O=C(O)c1ccc2cc(C(=O)O)ccc2c1` [2,6-dicarboxy naphthalene], the IC50 at human ME2 was 353 µM.
Take `O=C(O)c1cc2cccc(O)c2cc1O` [3,5-dihydroxy-2-naphthoic acid]: on human ME2, the IC50 worked out at 12.4 µM and the “inhibiting the activity” value is “relatively effective”.
Take `O=C(O)c1cc2cc(O)ccc2cc1O` [3,7-dihydroxy-2-naphthoic acid]: at human ME2, the IC50 is 37.6 µM.
The same measure, in the same setting: the value for `O=C(O)c1cccc(C(=O)c2ccccc2)c1` [3-benzoyl-benzoic acid] was 652 µM.
Turning to `O=C(O)c1cc2ccccc2cc1O` [3-hydroxy-2-naphthoic acid], at human ME2, the IC50 came to 105 µM and the “inhibiting the activity” value is on record as “relatively effective”.
On to `O=C(O)c1cc2cc(Br)ccc2cc1O` [7-bromo-3-hydroxy-2-naphthoic acid], for which, on human ME2, the IC50 turned out to be 308 µM.
Turning to `O=C(O)c1cc2ccccc2c(Cc2c(O)c(C(=O)O)cc3ccccc23)c1O` [EA, 4,4′-methylene-bis(3-hydroxy-2-naphthoic acid)], in the assay with MCF-7 cells [1], the ATP generation entry is recorded as “remained the same”, the basal respiration rate result is “remained the same”, the maximum respiration rate entry is listed as “remained the same” and the spare respiratory capacity entry is given as “remained the same”. In the assay on MCF-7 cells [2], the NADPH content result is “not reduced significantly” and the pyruvate content entry is reported as “not reduced significantly”. In addition, in the assay on H1299 cells [3], the ATP content entry is “lower” and the ROS content entry is “increase”. Also, the cell migration entry in the assay on MCF-7 cells [4] is “cannot inhibit”. Moreover, the cell migration entry in the assay on H1299 cells [5] was “inhibit”. Besides, in the assay on MCF-7 cells [6], the cell invasion result is recorded as “cannot inhibit”. Also, in the assay with H1299 cells [7], the cell invasion result was “inhibit”. In the assay on H1299 cells [8], the “ATP generation (mitochondrial electron transport chain)” value is on record as “reduced”, the basal respiration rate entry is “reduced”, the maximum respiration rate entry is reported as “reduced” and the spare respiratory capacity result is listed as “reduced”. In the assay with MV4-11 cells, the “AML cells in mice (CD33+ / CD45+ stained cells in peripheral blood and bone marrow)” value is recorded as “reduce”. Besides, in the assay on H1299 cells [9], the NADPH content entry is “reduce” and the pyruvate content entry is on record as “reduce”. Further, the “AML cells in mice (CD33+ / CD45+ stained cells in peripheral blood and bone marrow)” value in the assay with THP-1 cells is on record as “reduce”.
Consider `O=C(O)c1cc(Cc2ccc(O)c(C(=O)O)c2)ccc1O` [MDSA, 5,5′-methylenedisalicylic acid], for which the spare respiratory capacity entry in the assay on MCF-7 cells [1] is on record as “remained the same”. Besides, the figures for the NADPH content result in the assay with MCF-7 cells [2] and in the assay on H1299 cells [9] were “not reduced significantly” and “reduce”, respectively. Moreover, the pyruvate content result is “not reduced significantly” with MCF-7 cells [2] and “reduce” in the assay with H1299 cells [9]. The ATP content entry in the assay on H1299 cells [3] is listed as “lower”. The ROS content entry with H1299 cells [3] is reported as “increase”. In addition, the results for the cell invasion result with MCF-7 cells [6] and with H1299 cells [7] were “cannot inhibit” and “inhibit”, respectively. Further, in the assay on H1299 cells [8], the “ATP generation (mitochondrial electron transport chain)” value is “lowered”.
For the compound `O=C(O)c1ccccc1O` [Salicylic acid], the IC50 at human ME2 amounted to 801 µM.
